Measurements from paper PMC7824897, “Selection of the First ^99mTc-Labelled Somatostatin Receptor Subtype 2 Antagonist for Clinical Translation—Preclinical Assessment of Two Optimized Candidates” (Pharmaceuticals, 2020).

Columns and labels:
[1] = type: physicochemical; conditions: pH 7.4
Description: Determination of the distribution coefficient (log D) was performed by the shake-flask method in 1:1 mixture of octanol/Phosphate buffered saline (PBS). Then, 50 µL of [^99mTc]Tc-TECANT-1 or [^99mTc]Tc-TECANT-2 solution was diluted up to 500 µL with PBS (pH 7.4; 8 mM phosphate). Next, 20 µL of this solution was added to six eppendorf tubes, each containing 500 µL octanol and 480 µL PBS. The samples were vortexed for 15 min at 1400 rpm followed by centrifugation for 2 min at 4500 rpm. Aliquots of 100 µL from each phase were taken and measured in a γ-counter. The log D was calculated as the average of the logarithmic values (n = 3, six technical replicates) of the ratio between the radioactivity in the octanol and the PBS phase.

[2] = molecular target: T1, HEK-SST2 cells (human SST2 receptor) (Homo sapiens, UniProt P30874); experiment: Internalization and cell-surface binding in HEK-SST2 cells; type: cell-based; conditions: 37 °C
T1 construct: expressed in transfected cells; host or cells: HEK293 (HEK-SST2), provided by Prof; Stefan Schulz, Jena University Hospital
T1 sequence (P30874 whole entry): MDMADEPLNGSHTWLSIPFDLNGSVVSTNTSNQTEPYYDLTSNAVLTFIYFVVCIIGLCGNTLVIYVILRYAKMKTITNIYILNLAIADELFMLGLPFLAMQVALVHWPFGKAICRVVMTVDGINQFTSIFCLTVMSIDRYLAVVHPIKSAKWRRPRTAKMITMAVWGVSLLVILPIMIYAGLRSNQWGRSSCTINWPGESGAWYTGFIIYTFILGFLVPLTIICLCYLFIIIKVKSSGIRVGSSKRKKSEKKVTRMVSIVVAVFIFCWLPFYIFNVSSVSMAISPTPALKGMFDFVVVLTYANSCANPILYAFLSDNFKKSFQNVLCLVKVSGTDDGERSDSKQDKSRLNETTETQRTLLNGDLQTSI

[3] = molecular target: T1, HEK-SST2 cells (human SST2 receptor); experiment: Dissociation of cell-surface bound radiotracer with or without competitor; type: cell-based
[4] = design: species or system human
Description: To account for various possible locations of the tumour, we used two S-values. One was the value for the liver and is representative for the liver lesions. Other was the “average abdominal S-value”, which was the average S-value for the following organs: stomach, liver, gallbladder, spleen, pancreas, small intestine, kidneys, large intestine, and adrenal glands. Estimated dose to various organs, average total body dose and effective dose are summarized in Table 3 for both radiotracers and two typical tumour locations.
Dosimetric calculations were based on the biodistribution of [^99mTc]Tc-TECANT-1 and [^99mTc]Tc-TECANT-2 (Table 3). […] Percent of injected activity per organ in a human model was evaluated according to the animal data extrapolation model:(2) (%IA/organ)human=[(%IA/g)mouse×Mmouse(g)]×(m(g)/M(kg))human
Here m is the organ mass and M is the total body weight of mouse or human. Average total weight of the mouse was measured, while human phantom has the total weight of 73 kg. The %IA/g and %IA/organ is the percentage of the injected activity concentration (i.e., per gram of tissue) and per organ, respectively. For the tumour, we assumed that the percent of injected activity uptake into the tumour is the same for mouse and human.
Subsequently, percentage of the injected activity per organ was folded with the decay curve of ^99mTc and interpolated with the exponential function. The interpolation function was used to estimate initial %ID/organ and the time-integrated activity concentration (TIAC). Absorbed dose per injected activity for various organs was calculated with the TIAC factors and S-values for a standard person from the OpenDose project. Effective dose was evaluated according to the ICRP 103 recommendations.
We also assumed that the remaining activity from the organs and tumour ends up in the bladder.

[5] = in vivo; conditions: female, mouse, 20 pmol, total radioactivity
[6] = athymic nude-Foxn1^nu/Foxn1^+, Biodistribution Heart
[7] = athymic nude-Foxn1^nu/Foxn1^+, Biodistribution Liver
[8] = athymic nude-Foxn1^nu/Foxn1^+, Biodistribution Lung
[9] = athymic nude-Foxn1^nu/Foxn1^+, Biodistribution Pancreas
[10] = athymic nude-Foxn1^nu/Foxn1^+, Biodistribution Spleen
[11] = athymic nude-Foxn1nu/Foxn1+, Biodistribution Adrenals
[12] = athymic nude-Foxn1nu/Foxn1+, Biodistribution Blood
[13] = athymic nude-Foxn1nu/Foxn1+, Biodistribution Bone
[14] = athymic nude-Foxn1nu/Foxn1+, Biodistribution HEK-SST2 (+) tumour uptake
[15] = athymic nude-Foxn1nu/Foxn1+, Biodistribution Intestine
[16] = athymic nude-Foxn1nu/Foxn1+, Biodistribution Kidneys
[17] = athymic nude-Foxn1nu/Foxn1+, Biodistribution Muscle
[18] = athymic nude-Foxn1nu/Foxn1+, Biodistribution Pituitary
[19] = athymic nude-Foxn1nu/Foxn1+, Biodistribution Stomach

C[C@@H](O)[C@@H]1NC(=O)[C@H](CCCCN)NC(=O)[C@@H](Cc2c[nH]c3ccccc23)NC(=O)[C@H](Cc2ccc(O)cc2)NC(=O)[C@H](NC(=O)[C@H](Cc2ccc(Cl)cc2)NC(=O)C(CNCCN)CNCCN)CSSC[C@@H](C(=O)N[C@H](Cc2ccc(O)cc2)C(N)=O)NC1=O [[^99mTc]Tc-TECANT-2, metal not drawn]
logD [1]: -1.63 ± 0.16
internalization (internalized fraction) ([2]; 30 min): 4.4 ± 0.5%
internalization (internalized fraction) ([2]; 4 h): 11.7 ± 1.4%
cell surface binding ([2]; 4 h, % of total radioactivity added): 36.9 ± 8.5%
estimated dissociation half-life ([3]; absence of competitor): 40.3 min
total binding remaining (dissociation assay) ([3]; after 4 h, 37 °C, absence of competitor): 27.2 ± 6.3%
estimated dissociation half-life ([3]; presence of competitor): 7.5 min
bound fraction still remaining in the cells ([3]; presence of excess of the competitor, 37 °C): 1.1 ± 0.1%
Average total body dose [4]: 3.3 μGy/MBq
Dose Bone [4]: 4.0 μGy/MBq
Dose Muscle [4]: 2.6 μGy/MBq
Dose Red marrow [4]: 3.4 μGy/MBq
Dose Small intestine wall [4]: 1.9 μGy/MBq
biological half-life of clearance of remaining activity (rest of the body) to the bladder [4]: 13.3 h
effective dose [4]: 4.3 mSv
tissue uptake at 1 h [5, 6]: 1.64 ± 0.6 %ID/g
tissue uptake at 4 h [5, 6]: 0.26 ± 0.05 %ID/g
tissue uptake at 24 h [5, 6]: 0.05 ± 0.01 %ID/g
tissue uptake at 1 h [5, 7]: 5.38 ± 1.36 %ID/g
tissue uptake at 4 h [5, 7]: 3.72 ± 0.92 %ID/g
tissue uptake at 24 h [5, 7]: 1.07 ± 0.24 %ID/g
tissue uptake at 1 h [5, 8]: 17 ± 5.75 %ID/g
tissue uptake at 4 h [5, 8]: 2.52 ± 0.53 %ID/g
tissue uptake at 24 h [5, 8]: 0.3 ± 0.05 %ID/g
tissue uptake at 1 h [5, 9]: 16.4 ± 4.53 %ID/g
tissue uptake at 4 h [5, 9]: 1.96 ± 0.58 %ID/g
tissue uptake at 24 h [5, 9]: 0.12 ± 0.05 %ID/g
tissue uptake at 1 h [5, 10]: 1.61 ± 0.46 %ID/g
tissue uptake at 4 h [5, 10]: 0.55 ± 0.15 %ID/g
tissue uptake at 24 h [5, 10]: 0.24 ± 0.06 %ID/g
tissue uptake at 1 h [5, 11]: 5.14 ± 1.79 %ID/g
tissue uptake at 4 h [5, 11]: 1.25 ± 0.33 %ID/g
tissue uptake at 24 h [5, 11]: 0.73 ± 0.2 %ID/g
tissue uptake at 1 h [5, 12]: 1.8 ± 0.44 %ID/g
tissue uptake at 4 h [5, 12]: 0.23 ± 0.05 %ID/g
tissue uptake at 24 h [5, 12]: 0.03 ± 0.01 %ID/g
tissue uptake at 1 h [5, 13]: 1.67 ± 0.94 %ID/g
tissue uptake at 4 h [5, 13]: 0.41 ± 0.14 %ID/g
tissue uptake at 24 h [5, 13]: 0.2 ± 0.19 %ID/g
tissue uptake at 1 h [5, 14]: 19.1 ± 4.47 %ID/g
tissue uptake at 4 h [5, 14]: 28.4 ± 4.84 %ID/g
tissue uptake at 24 h [5, 14]: 11 ± 4.69 %ID/g
tissue uptake at 4 h ([5]; athymic nude-Foxn1nu/Foxn1+, Biodistribution HEK-SST2 (−) tumour uptake): 0.38 ± 0.13 %ID/g
tissue uptake at 1 h [5, 15]: 4.05 ± 1.12 %ID/g
tissue uptake at 4 h [5, 15]: 0.86 ± 0.4 %ID/g
tissue uptake at 24 h [5, 15]: 0.31 ± 0.17 %ID/g
tissue uptake at 1 h [5, 16]: 43.6 ± 11.4 %ID/g
tissue uptake at 4 h [5, 16]: 25.9 ± 5.23 %ID/g
tissue uptake at 24 h [5, 16]: 3.42 ± 1.44 %ID/g
tissue uptake at 1 h [5, 17]: 0.69 ± 0.22 %ID/g
tissue uptake at 4 h [5, 17]: 0.15 ± 0.04 %ID/g
tissue uptake at 24 h [5, 17]: 0.06 ± 0.03 %ID/g
tissue uptake at 1 h [5, 18]: 4.74 ± 1.5 %ID/g
tissue uptake at 4 h [5, 18]: 1.21 ± 0.86 %ID/g
tissue uptake at 24 h [5, 18]: 2.12 ± 1.36 %ID/g
tissue uptake at 1 h [5, 19]: 14.6 ± 4.89 %ID/g
tissue uptake at 4 h [5, 19]: 2.17 ± 0.39 %ID/g
tissue uptake at 24 h [5, 19]: 0.45 ± 0.08 %ID/g
